Measured values reported in US20070134657A1, “Methods and compositions relating to gradient exposed cells” (GENERAL HOSPITAL CORPORATION, THE, priority 2002, published 2007).

Assays:
T-cell = conditions: response to SDF-1; cited from earlier work
human neutrophils = experiment: Effect of signaling pathway inhibitors on directional neutrophil migration in IL-8 gradients (microfluidic device); format: cell-based; conditions: pretreated cells; IL-8 gradients in which chemotaxis and fugetaxis were seen
Source text: Microfluidic Migration Assay and Timelapse Microscopy: Neutrophils (1×10^3 cells) were placed uniformly across the migration channel and allowed to migrate under a linear gradient of human Interleukin-8 (72 a.a.; PeproTech, Rocky Hill, N.J.) in IMDM with 0.5% (w/v) FCS flowing at 0.1 mm/sec. […] Brightfield images were taken every 30 seconds using a C4742-95 Hamamatsu digital camera (Hamamatsu, Japan) controlled by IPLab 3.6.1 (Scanalytics, Fairfax, Va.). Cell movement was always observed at a set point along the migration channel. Gradients were also calibrated at this set point. Migration was quantified for all cells across the gradient.
Signaling Pathway Inhibitors: Cells were treated with pertussis toxin (100 ng/mL; 30 minutes at 37° C.), wortmannin (1 μM, 10 μM; 20 minutes at 37° C., 8-Br-cAMP (1 mM; 15 minutes at room temperature), 8-Br-cGMP (1 mM; 15 minutes at room temperature) (Sigma-Aldrich), or the CXCR2 non-peptide antagonist, SB225002 (1 pM, 100 pM, 1 nM, or 1 μM for 15 minutes at 37° C.; Calbiochem, Calif.). Immediately after treatment cells were seeded in migration channel of the microfluidic device and allowed to migrate as described above.
Since receptor occupancy is known to play a role in directional decision making and gradient sensing in the context of chemotaxing eukaryotic cells, it was postulated that chemokine receptor occupancy by a chemokine might also play a critical role in the decision of a cell to move up or down a chemokine gradient. Thus, a SB25002, the specific non-peptide antagonist of the IL-8 receptor, CXCR2 was utilized to examine this postulate. Neutrophils were pretreated with SB225002 at concentrations between 1 pM and 1 μM and then exposed to 0 to 1.2 μM gradients of IL-8 in microfabricated devices as described above. Videos of cell migration were analysed using MetaMorph and MathLab software to generate normalized angular frequencies determined for cells migrating in each of the three sectors of the gradient. The absence of inhibitor generates a normalized angular frequency of 1.0 whereas inhibition of fugetactic or chemotactic angular frequencies results in a normalized frequency of <1.0 and augmentation of either directional response results in a value greater than 1. This analysis allows to precisely quantitate the effect of a given concentration of inhibitor on the directional decision of the cell to move up or down a gradient. […] Furthermore, although IL-8 binds to both CXCR2 and CXCR1 on the cell surface, of the human neutrophil bi-directional signaling was evidently critically dependent on CXCR2.
It had been previously shown that the signaling pathway for chemotaxis is distinct from that for chemorepulsion or fugetaxis. […] The study of neutrophil migration in microfabricated devices allows to examine precisely the effects of these inhibitors on quantitative parameters of cell migration including the directional bias of cells in the context of precisely defined and stable chemokine gradients. Primary human neutrophils were pretreated with known inhibitors of the chemokine signal transduction pathway including pertussis toxin, wortmannin, genistein, 8-Br-cAMP and 8-Br-cGMP and then exposed to IL-8 gradients in which chemotaxis and fugetaxis were seen. The effect of the inhibitor on directional migration towards or away from the chemokine was quantitated by determining the directional motility index of cells migrating in the context of these gradients. Movement vector angles corresponding to movement up the gradient (30 to 150 degrees—see FIG. 13) were defined as chemotactic and measured movement vector angles corresponding to movement down the gradient (210 to 330 degrees—see figure) were defined as fugetactic. The directional choice of cells to move up or down a chemokine gradient were therefore compared in the presence and the absence of an inhibitor. […]

| SMILES | sensitivity of T-cell fugetaxis to inhibition, compared with chemotaxis (T-cell) | effect on neutrophil chemotaxis (angular frequency, movement up the gradient) (human neutrophils) | effect on neutrophil fugetaxis (angular frequency, movement down the gradient) (human neutrophils) | sensitivity of T-cell chemotaxis to inhibition, compared with fugetaxis (T-cell) |
| --- | --- | --- | --- | --- |
| Nc1ncnc2c1nc(Br)n2[C@@H]1O[C@@H]2COP(=O)(O)O[C@H]2[C@H]1O [8-Br-cAMP] | differentially more sensitive to inhibition | augmented | selectively inhibited | – |
| O=c1c(-c2ccc(O)cc2)coc2cc(O)cc(O)c12 [genistein] | – | – | – | differentially more sensitive to inhibition |
